Experimental data published in patent US20160251403A1, “PEPTIDE COMBINATIONS AND USES THEREOF IN TREATING DUST MITE ALLERGY” (ALK-ABELLO A/S, priority 2013, published 2016).
Changes are numbered by the printed parent chain. No end group written: not given here.

Legend:
DRB1_0701 = DRB1_0701 (Homo sapiens, UniProt P01903+P01911, A100R/A102G/A103Q/D57E/D86V/E43K/F76Y/K127E/L162R/M171V/P40G/Q125H/Q99D/R33Q/R42Y/R54Q/S133A/S66F/T210M/V115G/Y107V/Y59L/Y89S); experiment: Competitive MHC class II binding assay, DRB1_0701;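 further: displacement of a radiolabeled reference peptide from purified HLA class II protein, with complex-bound radioactivity counted after 2–4 days of incubation and six concentrations spanning a 100,000-fold range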
DRB1_0101 = DRB1_0101 (Homo sapiens, UniProt P01903+P01911, A100R/D57E/F55L/F60I/F76Y/I96L/L162R/M171V/P40L/Q125E/R42F/V115G/Y59C); experiment: Competitive MHC class II binding assay, DRB1_0101;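 further: competition against a radiolabeled probe peptide (0.1–1 nM) for purified HLA class II protein over 2–4 days, bound counts read after antibody capture, six competitor levels across 100,000-fold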
DRB1_1302 = DRB1_1302 (Homo sapiens, UniProt P01903+P01911, A100E/A169T/K41T/L162R/M171V/P40S/Q125H/Q178H/Q39Y/Q99D/R42S/S66N/T262R/V115G/W38E/Y61H); experiment: Competitive MHC class II binding assay, DRB1_1302;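 further: purified HLA class II protein incubated two to four days with a radiolabeled reference binder and test peptide at six concentrations over a 100,000-fold range, complex-bound radioactivity counted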
DPA10103-DPB10402 = target: T1, DPA10103-DPB10402 (Homo sapiens, UniProt P04440+P20036, A65V/A84D/A85E/L207M); experiment: Competitive MHC class II binding assay, DPA10103-DPB10402
T1 sequence (P20036 29-260): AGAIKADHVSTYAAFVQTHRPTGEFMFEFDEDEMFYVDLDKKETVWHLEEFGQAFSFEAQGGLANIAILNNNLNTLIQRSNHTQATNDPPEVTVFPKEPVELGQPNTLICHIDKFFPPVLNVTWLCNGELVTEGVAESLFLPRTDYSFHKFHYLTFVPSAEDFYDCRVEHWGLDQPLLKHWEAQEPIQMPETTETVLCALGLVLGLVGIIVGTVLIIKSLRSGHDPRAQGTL
T1 sequence (P04440 30-258 A65V/A84D/A85E): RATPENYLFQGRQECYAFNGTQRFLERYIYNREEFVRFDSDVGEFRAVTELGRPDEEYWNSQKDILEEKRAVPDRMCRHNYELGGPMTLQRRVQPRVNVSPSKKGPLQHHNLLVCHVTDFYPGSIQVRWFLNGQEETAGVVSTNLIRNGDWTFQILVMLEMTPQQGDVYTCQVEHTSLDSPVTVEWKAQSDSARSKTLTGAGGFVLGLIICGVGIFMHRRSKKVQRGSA

DRB1_1501 = DRB1_1501 (Homo sapiens, UniProt P01903+P01911); experiment: Competitive MHC class II binding assay, DRB1_1501
DRB3_0202 = DRB3_0202 (Homo sapiens, UniProt P01903+P79483, A212P/D57E/F66Y/L67A/R103Q/R218S/R40L/S89Y/T80R/V86D/Y55F/Y59H); experiment: Competitive MHC class II binding assay, DRB3_0202
DRB1_0901 = DRB1_0901 (Homo sapiens, UniProt P01903+P01911, A100R/A103E/D57H/D86V/F55Y/F60I/F76Y/I96F/K127E/L162R/M171V/P40D/Q125H/Q99R/R33Q/R42F/S133A/S66N/T210M/V115G/W38K/Y107V/Y59G/Y89S); experiment: Competitive MHC class II binding assay, DRB1_0901;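 further: displacement of a radiolabeled probe peptide from purified HLA class II protein, bound counts read after two to four days incubation, six concentrations spanning 100,000-fold, unlabeled probe as reference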
DRB5_0101 = DRB5_0101 (Homo sapiens, UniProt P01903+Q30154); experiment: Competitive MHC class II binding assay, DRB5_0101
DRB4_0101 = DRB4_0101 (Homo sapiens, UniProt P01903+P13762, G164S); experiment: Competitive MHC class II binding assay, DRB4_0101
DQA10501-DQB10301 = DQA10501-DQB10301 (Homo sapiens, UniProt P01909+P01920); experiment: Competitive MHC class II binding assay, DQA10501-DQB10301
DPA10202-DPB10501 = target: T2, DPA10202-DPB10501 (Homo sapiens, UniProt P04440+P20036, A42M/A65V/A84E/F191V/F64L/G113D/G114E/K142R/L158P/M116V/M62Q/P115A/Q81R/R125K/T114A/T199I/T259P/V234M); experiment: Competitive MHC class II binding assay, DPA10202-DPB10501; conditions: positive binding at cutoff 1000 nM; read-out: HLA-DPA10202-DPB10501
T2 sequence (P04440 30-258 A65V/A84E/F64L/G113D/G114E/M116V/P115A/R125K/T199I/V234M): T1 sequence (P04440 30-258 A65V/A84D/A85E) with F35L, D55E, E56A, G84D, G85E, P86A, M87V, R96K, T170I, V205M
T2 sequence (P20036 29-260 A42M/F191V/K142R/L158P/M62Q/Q81R/T114A/T259P): T1 sequence (P20036 29-260) with A14M, M34Q, Q53R, T86A, K114R, L130P, F163V, T231P

DRB1_0802 = DRB1_0802 (Homo sapiens, UniProt P01903+P01911, A100R/A103L/A169T/F76Y/H45Y/I96F/K41T/L162R/M171V/P40S/Q125H/Q178H/Q39Y/Q99D/R218S/R42G/S66Y/V115G/W38E); experiment: Competitive MHC class II binding assay, DRB1_0802
DRB1_0401 = DRB1_0401 (Homo sapiens, UniProt P01903+P01911, A100K/A169T/F76Y/I96L/K127E/L162R/M171V/N62H/P40V/Q125Y/R42H/S133A/S149N/S66Y/V115G/V209L/W38E); experiment: Competitive MHC class II binding assay, DRB1_0401
DRB3_0101 = DRB3_0101 (Homo sapiens, UniProt P01903+P79483); experiment: Competitive MHC class II binding assay, DRB3_0101
DQA10301-DQB10302 = DQA10301-DQB10302 (Homo sapiens, UniProt P01909+P01920, A209T/A45G/C70Q/D89A/DUP78-78/E183D/E77G/F237L/G63E/H199R/I129T/K197E/L178F/L74F/L98V/Q57E/Q76R/S185I/S97I/T217I/T49S/V73L/Y58L); experiment: Competitive MHC class II binding assay, DQA10301-DQB10302
DRB1_1201 = DRB1_1201 (Homo sapiens, UniProt P01903+P01911, A100R/A169T/D57E/D86V/F55L/H45Y/K41T/L162R/M171V/P40S/Q125H/Q178H/Q39Y/Q99D/R42G/S66L/T262R/V114A/V67L/W38E/Y59H/Y61H/Y89S); experiment: Competitive MHC class II binding assay, DRB1_1201
DQA10401-DQB10402 = experiment: Competitive MHC class II binding assay, DQA10401-DQB10402
DQA10501-DQB10201 = DQA10501-DQB10201 (Homo sapiens, UniProt P01909+P01920, A45G/A70V/D89A/E106A/E77G/E98D/H199R/L107V/N214S/P84L/P87L/T103K/T109R/T172A/T60S/V78E/V99I/Y58L/Y62S/Y69I/Y79F); experiment: Competitive MHC class II binding assay, DQA10501-DQB10201
[1] = Solubility of peptides in aqueous solutions at different pH (visual inspection, OD, HPLC); type: physicochemical; conditions: pH 7, visual inspection
Text: This example describes modifications of parent peptides to improve the aqueous solubility, in particular to increase the solubility in an aqueous solution having pH in a physiologically acceptable range, e.g. from 6 to 8. Solubility is closely related to the ratio between hydrophilic and hydrophobic amino acid residues and the net charge state of the peptide. Peptides have zero net charge at pH=pI, and would be expected to show the lowest solubility at this pH. […] The solubility of these peptides was increased at pH values outside the physiological range (data not shown).
Peptides were tested for their ability to dissolve in aqueous solutions at different pH values. In short, each of the peptides were dissolved in water (pH about 5-6), hydrochloride solution at pH 2 (10 mM HCl), acetate buffer with pH 5 (20 mM acetate and 140 mM sodium chloride), phosphate buffer with pH 7 (20 mM phosphate and 140 mM sodium chloride) or bistrispropate buffer with pH 9 (20 mM bitrispropane and 140 mM sodium chloride, respectively, to produce a final molar concentration of the peptide of about 0.25 mM or 1 mM. Optionally, about 20% DMSO may be part of the solution. For comparison reasons, peptides were also dissolved in acetonitrile or DMSO. The solutions were inspected visually before and after centrifugation for turbidity, presence of particles/aggregates. In addition, presence of turbidity/particles/aggregates were detected by optical density (OD), but might also be detected by size-exclusion chromatography. Sub-visual particles may also be detected by dynamic light scattering (DLS) analysis. The solubility and stability of each peptide were also investigated using HPLC, e.g. RP-HPLC. For example, each of the solutions were injected onto the HPLC and the peak height or peak area of each of the peptides were compared to the corresponding peptide of a chromatogram of peptides dissolved in acetonitrile or DMSO—as peptides were assumed to be fully dissolved and stable in these solvents.

DRB1_0405 = DRB1_0405 (Homo sapiens, UniProt P01903+P01911, A100R/A169T/D86S/F76Y/I96L/K127E/L162R/M171V/N62H/P40V/Q125Y/R42H/S133A/S149N/S66Y/V115G/V209L/W38E); experiment: Competitive MHC class II binding assay, DRB1_0405
DRB1_0301 = DRB1_0301 (Homo sapiens, UniProt P01903+P01911, A100K/A102G/A103R/A169T/F55Y/I96L/K41T/L162R/M171V/P40S/Q125H/Q178H/Q39Y/R42S/S66N/T106N/T262R/W38E/Y61H); experiment: Competitive MHC class II binding assay, DRB1_0301
DQA10102-DQB10602 = experiment: Competitive MHC class II binding assay, DQA10102-DQB10602; conditions: read-out: HLA-DQA10102-DQB10602; positive binding at cutoff 1000 nM

| Sequence | IC50 (DRB1_0701) [nM] | IC50 (DRB1_0101) [nM] | IC50 (DRB1_1302) [nM] | IC50 (DRB1_1501) [nM] | IC50 (DRB3_0202) [nM] | IC50 (DRB1_0901) [nM] | IC50 (DRB5_0101) [nM] | IC50 (DQA10501-DQB10301) [nM] | IC50 (DPA10202-DPB10501) [nM] | IC50 (DRB1_0802) [nM] | IC50 (DRB1_0401) [nM] | IC50 (DRB3_0101) [nM] | IC50 (DQA10102-DQB10602) [nM] | further results |
| --- | --- | --- | --- | --- | --- | --- | --- | --- | --- | --- | --- | --- | --- | --- |
| NYSQIYPPNVNKIREA [HDM101A, reference compound] | < 1000 | < 1000 | < 1000 | < 1000 | < 1000 | – | – | – | – | – | – | – | – | IC50 (DPA10103-DPB10402): < 1000 nM |
| GVLASAIATHAKIR [HDM26B, reference compound] | < 1000 | < 1000 | < 1000 | < 1000 | < 1000 | < 1000 | < 1000 | < 1000 | < 1000 | < 1000 | < 1000 | – | – | IC50 (DRB4_0101): < 1000 nM |
| VLASAIATHAKIRD [pep-012] | < 1000 | < 1000 | – | – | – | < 1000 | < 1000 | < 1000 | < 1000 | – | – | < 1000 | – | – |
| VMGDNGVLASAIATHAKIRD [pep-125] | – | < 1000 | – | – | – | < 1000 | < 1000 | < 1000 | < 1000 | < 1000 | – | – | – | IC50 (DQA10301-DQB10302): < 1000 nM |
| IEYIQQNGVVEERSYPYVAR [pep-075] | – | < 1000 | < 1000 | – | < 1000 | – | – | – | – | – | – | < 1000 | < 1000 | IC50 (DRB1_1201): < 1000 nM; binding to HLA Class II allele DQA10401-DQB10402 (DQA10401-DQB10402; as shown in Table 16a): binds to at least the same alleles as peptide 041; IC50 (DQA10401-DQB10402; read-out: HLA-DQA10401-DQB10402, positive binding at cutoff 1000 nM): < 1000 nM; IC50 (DQA10501-DQB10201): < 1000 nM; binding to HLA Class II allele DQA10501-DQB10201 (DQA10501-DQB10201; as shown in Table 16a): binds to at least the same alleles as peptide 041; binding to HLA Class II allele DRB1_1302 (DRB1_1302; as shown in Table 16a): binds to at least the same alleles as peptide 041; binding to HLA Class II allele DRB3_0101 (DRB3_0101; as shown in Table 16a): binds to at least the same alleles as peptide 041; Solubility at pH 7 (visual inspection) [1]: Turbid; IC50 (DRB1_0405): < 1000 nM; binding to HLA Class II allele DRB3_0202 (DRB3_0202; as shown in Table 16a): binds to at least the same alleles as peptide 041; IC50 (DRB1_0301): < 1000 nM |
| VMGDDGVLASAIATHAKIRD [pep-099] | – | < 1000 | < 1000 | – | – | < 1000 | < 1000 | < 1000 | < 1000 | < 1000 | < 1000 | – | < 1000 | – |
